Reference: patent publication US8168651B2, “Protein kinase modulators” (Cylene Pharmaceuticals, Inc., priority 2008, dated 2012)
Where two headings read alike, the source gives them in different places. Blank lines part the entries; values can stand above or below the compound they belong to.

What was measured:
recombinant human CK2 = recombinant human CK2 (Homo sapiens (Human), UniProt P68400); test: CK2 assay (cell-free, 33P-ATP filter plate); type: biochemical; conditions: for inhibition at 10 µM: read-out: CK2 % inhib @ 10 uM; for inhibition at 5 µM: read-out: CK2 % inhibition 5 uM, 5 uM
recombinant human CK2, sequence (P68400 whole entry): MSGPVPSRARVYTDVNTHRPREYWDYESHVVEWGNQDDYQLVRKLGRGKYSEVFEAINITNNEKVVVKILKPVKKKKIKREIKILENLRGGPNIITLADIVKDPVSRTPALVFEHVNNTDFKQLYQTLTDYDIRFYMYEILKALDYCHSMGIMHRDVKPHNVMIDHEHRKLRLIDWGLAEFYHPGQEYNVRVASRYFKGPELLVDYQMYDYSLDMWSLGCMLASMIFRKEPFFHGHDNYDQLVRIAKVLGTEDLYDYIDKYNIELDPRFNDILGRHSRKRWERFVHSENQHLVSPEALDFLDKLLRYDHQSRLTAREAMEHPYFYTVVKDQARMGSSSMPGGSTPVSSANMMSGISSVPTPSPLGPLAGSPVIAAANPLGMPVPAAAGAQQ
recombinant human CK2, sequence (P67870 whole entry partner): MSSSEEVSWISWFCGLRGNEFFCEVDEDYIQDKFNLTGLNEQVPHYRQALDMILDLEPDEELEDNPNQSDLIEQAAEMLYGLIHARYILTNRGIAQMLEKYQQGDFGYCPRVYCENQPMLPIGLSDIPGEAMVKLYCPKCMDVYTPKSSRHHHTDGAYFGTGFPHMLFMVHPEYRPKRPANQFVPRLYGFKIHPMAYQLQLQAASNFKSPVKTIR

recombinant human PIM1 = recombinant human PIM1 (Homo sapiens (Human), UniProt P11309); test: PIM-1 kinase activity in cell-free in vitro assay; type: biochemical; conditions: for inhibition at 0.5 µM: read-out: PIM-1: % inh 500 nM
recombinant human PIM1, sequence (P11309 whole entry): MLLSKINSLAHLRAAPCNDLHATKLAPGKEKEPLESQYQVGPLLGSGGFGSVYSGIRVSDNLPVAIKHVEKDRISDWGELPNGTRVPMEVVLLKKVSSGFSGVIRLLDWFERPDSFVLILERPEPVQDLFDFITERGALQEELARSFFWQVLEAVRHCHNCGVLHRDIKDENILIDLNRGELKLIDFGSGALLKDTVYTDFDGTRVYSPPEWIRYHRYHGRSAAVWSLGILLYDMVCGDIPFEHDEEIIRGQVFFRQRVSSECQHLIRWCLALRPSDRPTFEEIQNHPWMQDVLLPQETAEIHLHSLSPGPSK

[1] = tested on: HCT-116 human colorectal carcinoma cells; test: Cell-proliferation assay using Alamar Blue dye; type: cell-based;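 note: cells exposed to compound for about 4 days, then Alamar Blue added and dye fluorescence read after about 4 h, compared with medium-only control wells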
[2] = Homo sapiens, HCT-116, HCT-116, first column, read-out: HCT-116 (uM), cell proliferation modulatory activity
[3] = Homo sapiens, HCT-116, read-out: HCT-116 (uM), cell proliferation modulatory activity, HCT-116, first column
[4] = Homo sapiens, HCT-116, HCT-116, second column, read-out: HCT-116 (uM), cell proliferation modulatory activity
[5] = Homo sapiens, HCT-116, read-out: HCT-116 (uM), cell proliferation modulatory activity, HCT-116, second column
[6] = 500 nM compound, cell-free assay
[7] = Homo sapiens, HCT-116, read-out: HCT-116 (uM), cell proliferation modulatory activity, HCT-116, second HCT-116 column (c8)

Structure (SMILES): O=c1[nH]c2ccccc2c2sccc12
inhibition at 10 µM (recombinant human CK2): 0%

Structure (SMILES): COC(=O)c1ccc2c(c1)[nH]c(=O)c1ccsc12
inhibition at 10 µM (recombinant human CK2): 17%

Structure (SMILES): O=C(O)c1ccc2c(c1)[nH]c(=O)c1cc(Br)sc12
inhibition at 10 µM (recombinant human CK2): 5%

Structure (SMILES): CC(C)(C)OC(=O)CCNC(=O)c1ccc2c(c1)[nH]c(=O)c1ccsc12
inhibition at 10 µM (recombinant human CK2): 8%

Structure (SMILES): COC(=O)CNC(=O)c1ccc2c(c1)[nH]c(=O)c1ccsc12
inhibition at 10 µM (recombinant human CK2): 10%

Structure (SMILES): O=C(O)CCNC(=O)c1ccc2c(c1)[nH]c(=O)c1ccsc12
inhibition at 10 µM (recombinant human CK2): 16%

Structure (SMILES): O=C(O)CNC(=O)c1ccc2c(c1)[nH]c(=O)c1ccsc12
inhibition at 10 µM (recombinant human CK2): 12%

Structure (SMILES): O=C(Nc1nccs1)c1ccc2c(c1)[nH]c(=O)c1ccsc12
inhibition at 10 µM (recombinant human CK2): 10%

Structure (SMILES): O=C(Nc1cccnc1)c1ccc2c(c1)[nH]c(=O)c1ccsc12
inhibition at 10 µM (recombinant human CK2): -9%

Structure (SMILES): O=C(Nc1ccc(Cl)cc1)c1ccc2c(c1)[nH]c(=O)c1ccsc12
inhibition at 10 µM (recombinant human CK2): -10%

Structure (SMILES): O=C(NCCc1cnc[nH]1)c1ccc2c(c1)[nH]c(=O)c1ccsc12
inhibition at 10 µM (recombinant human CK2): 7%

Structure (SMILES): O=C(NCCN1CCOCC1)c1ccc2c(c1)[nH]c(=O)c1ccsc12
inhibition at 10 µM (recombinant human CK2): -9%

Structure (SMILES): O=C(c1ccc2c(c1)[nH]c(=O)c1ccsc12)N1CCOCC1
inhibition at 10 µM (recombinant human CK2): 2%

Structure (SMILES): CCCNC(=O)c1ccc2c(c1)[nH]c(=O)c1ccsc12
inhibition at 10 µM (recombinant human CK2): -34%

Structure (SMILES): O=C(NCCc1ccccn1)c1ccc2c(c1)[nH]c(=O)c1ccsc12
inhibition at 10 µM (recombinant human CK2): -24%

Structure (SMILES): COCCNC(=O)c1ccc2c(c1)[nH]c(=O)c1ccsc12
inhibition at 10 µM (recombinant human CK2): -19%

Structure (SMILES): COc1ccc(CCNC(=O)c2ccc3c(c2)[nH]c(=O)c2ccsc23)cc1OC
inhibition at 10 µM (recombinant human CK2): -22%

Structure (SMILES): CN(C)C(=O)c1ccc2c(c1)[nH]c(=O)c1ccsc12
inhibition at 10 µM (recombinant human CK2): 3%

Structure (SMILES): CC(=O)N1CCN(C(=O)c2ccc3c(c2)[nH]c(=O)c2ccsc23)CC1
inhibition at 10 µM (recombinant human CK2): 7%

Structure (SMILES): O=C(NC1CC1)c1ccc2c(c1)[nH]c(=O)c1ccsc12
inhibition at 10 µM (recombinant human CK2): 0%

Structure (SMILES): CC(C)(C)OC(=O)N1CCN(C(=O)c2ccc3c(c2)[nH]c(=O)c2ccsc23)CC1
inhibition at 10 µM (recombinant human CK2): -25%

Structure (SMILES): COc1ccccc1CNC(=O)c1ccc2c(c1)[nH]c(=O)c1ccsc12
inhibition at 10 µM (recombinant human CK2): 8%

Structure (SMILES): Cc1cc(CNC(=O)c2ccc3c(c2)[nH]c(=O)c2ccsc23)no1
inhibition at 10 µM (recombinant human CK2): -13%

Structure (SMILES): COc1ccc(CNC(=O)c2ccc3c(c2)[nH]c(=O)c2ccsc23)cc1
inhibition at 10 µM (recombinant human CK2): 1%

Structure (SMILES): O=C(NCc1ccccn1)c1ccc2c(c1)[nH]c(=O)c1ccsc12
inhibition at 10 µM (recombinant human CK2): 3%

Structure (SMILES): O=C(NCCc1ccccc1)c1ccc2c(c1)[nH]c(=O)c1ccsc12
inhibition at 10 µM (recombinant human CK2): 1%

Structure (SMILES): O=C(NCc1ccncc1)c1ccc2c(c1)[nH]c(=O)c1ccsc12
inhibition at 10 µM (recombinant human CK2): -13%

Structure (SMILES): O=C(NCc1cccnc1)c1ccc2c(c1)[nH]c(=O)c1ccsc12
inhibition at 10 µM (recombinant human CK2): -24%

Structure (SMILES): O=C(Nc1ccc(CN2CCS(=O)(=O)CC2)cc1)c1ccc2c(c1)[nH]c(=O)c1ccsc12
inhibition at 10 µM (recombinant human CK2): -1%

Structure (SMILES): O=C(c1ccc2c(c1)[nH]c(=O)c1ccsc12)N1CCNCC1
inhibition at 10 µM (recombinant human CK2): -27%

Structure (SMILES): NC1CCN(C(=O)c2ccc3c(c2)[nH]c(=O)c2ccsc23)CC1
inhibition at 10 µM (recombinant human CK2): -3%

Structure (SMILES): O=C(Nc1ccccc1C(=O)O)c1ccc2c(c1)[nH]c(=O)c1ccsc12
inhibition at 10 µM (recombinant human CK2): 41%

Structure (SMILES): NC(=O)c1ccc2c(c1)[nH]c(=O)c1ccsc12
inhibition at 10 µM (recombinant human CK2): -14%

Structure (SMILES): O=c1[nH]c2cc(CO)ccc2c2sccc12
inhibition at 10 µM (recombinant human CK2): 3%

Structure (SMILES): N#Cc1ccc2c(c1)[nH]c(=O)c1ccsc12
inhibition at 10 µM (recombinant human CK2): -5%

Structure (SMILES): O=c1[nH]c2cc(-c3nnn[nH]3)ccc2c2cnccc12 [drawing 568]
inhibition at 1 µM (recombinant human CK2; at 1 μM, read-out: CK2 Inhibition): 46%

Structure (SMILES): N#Cc1ccc2c(c1)nc(Cl)c1ccsc12 [drawing 587]
inhibition at 5 µM (recombinant human CK2): 63%

Structure (SMILES): c1ccc(Nc2nc3ccccc3c3sccc23)cc1 [drawing 588]
inhibition at 5 µM (recombinant human CK2): 0%

Structure (SMILES): COC(=O)c1ccc2c(c1)[nH]c(=O)c1ccncc12 [drawing 1390]
inhibition at 0.5 µM (recombinant human PIM1; 500 nM compound, cell-free): 0.802%
IC50 [1, 3]: 10 µM

Structure (SMILES): N#Cc1ccc2c(c1)nc(Cl)c1ccsc12 [drawing 1398]
inhibition at 0.5 µM (recombinant human PIM1; 500 nM compound, cell-free): -20.2%
IC50 [1, 2]: 10 µM

Structure (SMILES): c1ccc(Nc2nc3ccccc3c3sccc23)cc1 [drawing 1399]
inhibition at 0.5 µM (recombinant human PIM1; 500 nM compound, cell-free): -22%
IC50 [1, 2]: 10 µM

Structure (SMILES): O=c1[nH]c(-c2ccc3c(c2)nc(Nc2ccccc2)c2ccsc23)no1 [drawing 1434]
inhibition at 0.5 µM (recombinant human PIM1; 500 nM compound, cell-free): 5.78%
IC50 [1, 4]: 10 µM

Structure (SMILES): O=c1[nH]c2cc(-c3nnn[nH]3)ccc2c2cnccc12 [drawing 1444]
inhibition at 0.5 µM (recombinant human PIM1; 500 nM compound, cell-free): 3.3%
IC50 [1, 4]: 15 µM

Structure (SMILES): Cc1cc(CNC(=O)c2cccc(Nc3nc4cc(-c5nnn[nH]5)ccc4c4sccc34)c2)no1 [drawing 1507]
inhibition at 0.5 µM (recombinant human PIM1; 500 nM compound, cell-free): 37.6%
IC50 [1, 5]: > 10 µM

Structure (SMILES): Cc1cc(CNC(=O)c2cccc(Nc3nc4cc(-c5nnn[nH]5)ccc4c4sccc34)c2)no1 [drawing 1508]
PIM-1: % inh 500 nM (recombinant human PIM1; 500 nM compound, cell-free): 55.402%
IC50 (recombinant human PIM1; cell-free): 0.581 µM
IC50 ([1]; read-out: HCT-116 (uM), cell proliferation modulatory activity, HCT-116): > 10 µM

Other lines, results leading:

inhibition at 5 µM (recombinant human CK2): 0%
Structure (SMILES): CN(C)CCNc1nc2ccccc2c2sccc12 [drawing 589]

inhibition at 5 µM (recombinant human CK2): 28%
Structure (SMILES): O=C(O)c1ccc2c(c1)nc(N1CCOCC1)c1ccsc12 [drawing 590]

inhibition at 1 µM (recombinant human CK2; read-out: CK2 % inhibition 1.0 uM, 1.0 uM): 0%
Structure (SMILES): CN(C)CCNc1nc2cc(C#N)ccc2c2sccc12 [drawing 612]

inhibition at 0.5 µM (recombinant human PIM1; 500 nM compound, cell-free): -30%
IC50 [1, 2]: 10 µM
Structure (SMILES): COC(=O)c1ccc2c(c1)nc(Cl)c1ccsc12 [drawing 1375]

inhibition at 0.5 µM (recombinant human PIM1; 500 nM compound, cell-free): 1.05%
IC50 [1, 2]: 10 µM
Structure (SMILES): O=C(O)c1ccc2c(c1)nc(OCCCO)c1ccccc12 [drawing 1388]

inhibition at 0.5 µM (recombinant human PIM1; 500 nM compound, cell-free): 35%
IC50 [1, 3]: 10 µM
Structure (SMILES): CN(C)CCNc1nc2cc(C(=O)O)ccc2c2ccccc12 [drawing 1391]

inhibition at 0.5 µM (recombinant human PIM1; 500 nM compound, cell-free): 28.1%
IC50 [1, 3]: 10 µM
Structure (SMILES): O=C(O)c1ccc2c(c1)nc(Nc1ccccc1)c1ccccc12 [drawing 1394]

inhibition at 0.5 µM (recombinant human PIM1; 500 nM compound, cell-free): -24.2%
IC50 [1, 2]: 2.3 µM
Structure (SMILES): CN(C)CCNc1nc2ccccc2c2sccc12 [drawing 1400]

inhibition at 0.5 µM (recombinant human PIM1; 500 nM compound, cell-free): 35.7%
IC50 [1, 2]: 10 µM
Structure (SMILES): O=C(O)c1ccc2c(c1)nc(N1CCOCC1)c1ccsc12 [drawing 1401]

inhibition at 0.5 µM (recombinant human PIM1; 500 nM compound, cell-free): -3.84%
IC50 [1, 2]: 0.4 µM
Structure (SMILES): CN(C)CCNc1nc2cc(C#N)ccc2c2sccc12 [drawing 1429]

inhibition at 0.5 µM (recombinant human PIM1; 500 nM compound, cell-free): -22.3%
IC50 [1, 2]: 10 µM
Structure (SMILES): N#Cc1ccc2c(c1)nc(Nc1ccccc1)c1ccsc12 [drawing 1431]

inhibition at 0.5 µM (recombinant human PIM1; 500 nM compound, cell-free): -38.1%
IC50 [1, 4]: 8.7 µM
Structure (SMILES): NC(=O)c1ccc2c(c1)nc(Nc1ccccc1)c1ccsc12 [drawing 1432]

inhibition at 0.5 µM (recombinant human PIM1; 500 nM compound, cell-free): 80.9%
IC50 (recombinant human PIM1; cell-free): 0.536 µM
IC50 [1, 5]: > 10 µM
Structure (SMILES): O=C(O)c1ccc2c(c1)nc(NCCc1ccccc1)c1ccncc12 [drawing 1511]

inhibition at 0.5 µM (recombinant human PIM1; 500 nM compound, cell-free): 44.4%
IC50 (recombinant human PIM1; cell-free): 0.675 µM
IC50 [1, 5]: > 10 µM
Structure (SMILES): O=C(O)c1ccc2c(c1)nc(NCc1ccccc1)c1ccncc12 [drawing 1557]

inhibition at 0.5 µM (recombinant human PIM1; [6]): 11.1%
IC50 [1, 7]: > 10 µM
Structure (SMILES): CCOc1ncc2c(n1)c(NC1CC1)nc1cc(C(=O)O)ccc12 [drawing 1615]

inhibition at 0.5 µM (recombinant human PIM1; [6]): 26.9%
IC50 [1, 7]: > 10 µM
Structure (SMILES): O=C(O)c1ccc2c(c1)nc(NCc1cccnc1)c1nc(NC3CC3)ncc12 [drawing 1625]

inhibition at 0.5 µM (recombinant human PIM1; [6]): 25.3%
IC50 [1, 7]: > 10 µM
Structure (SMILES): O=C(O)c1ccc2c(c1)nc(NCc1ccccc1)c1nc(NC3CC3)ncc12 [drawing 1626]

inhibition at 0.5 µM (recombinant human PIM1; [6]): 66.1%
IC50 [1, 7]: > 10 µM
Structure (SMILES): Cc1cc(Nc2ncc3c(n2)c(Nc2ccc(F)c(Cl)c2)nc2cc(C(=O)O)ccc23)[nH]n1 [drawing 1635]

inhibition at 0.5 µM (recombinant human PIM1; [6]): 28.1%
IC50 [1, 7]: > 10 µM
Structure (SMILES): O=C(O)c1ccc2c(c1)nc(NC1CC1)c1ccncc12 [drawing 1639]

inhibition at 0.5 µM (recombinant human PIM1; [6]): 60.1%
IC50 (recombinant human PIM1; cell-free assay): 0.432 µM
IC50 [1, 7]: > 10 µM
Structure (SMILES): Nc1ncc2c(n1)c(NC1CC1)nc1cc(C(=O)O)ccc12 [drawing 1644]
